Measured values from the NIST ThermoML archive (doi:10.1016/j.jct.2018.03.011).

Columns and labels:
[1] = Molar enthalpy of transition or fusion; conditions: Crystal; DSC
[2] = for Normal melting temperature: Crystal; for viscosity / mass density: 101.33 kPa, Liquid; for viscosity: Falling or rolling sphere viscometry; for mass density: Vibrating tube method

CCCC[N+]1(C)CCOCC1.[Br-] [4-butyl-4-methylmorpholinium bromide]
Conditions	Molar enthalpy of transition or fusion [kcal/mol]
[1]	3.54

Conditions	Normal melting temperature [°C]
[2], DTA	211.1

OCCOCCOCCO [triethylene glycol]
[2]
Conditions	mass density [kg/m3]	viscosity [mPa·s]
293.2 K	1123.1	48.32
298.2 K	1119.2	37.16
303.2 K	1115.4	29.27
308.2 K	1111.5	23.74
313.2 K	1107.6	19.26
318.2 K	1103.8	16.41
323.2 K	1099.9	13.51
328.2 K	1096	11.35
333.2 K	1092.1	9.602
338.2 K	1088.2	8.278
343.2 K	1084.3	7.351

CCCCn1cc[n+](C)c1.[Br-] [1-butyl-3-methylimidazolium bromide]
Conditions	Normal melting temperature [°C]
[2], visual observation	79.0

CC[N+]1(C)CCOCC1.[Br-] [N-ethyl-N-methylmorpholinium bromide]
Conditions	Molar enthalpy of transition or fusion [kcal/mol]
[1]	3.99

Conditions	Normal melting temperature [°C]
[2], DTA	172.5

O=S1(=O)CCCC1 [sulfolane]
[2]
Conditions	mass density [kg/m3]	viscosity [mPa·s]
308.2 K	1257.4	9.194
313.2 K	1253	8.116
318.2 K	1248.6	7.201
323.2 K	1244.2	6.439
328.2 K	1239.8	5.772
333.2 K	1235.5	5.199
338.2 K	1231.1	4.714
343.2 K	1226.7	4.268

OCCOCCO [diethylene glycol]
[2]
Conditions	mass density [kg/m3]	viscosity [mPa·s]
293.2 K	1116.4	38.11
298.2 K	1112.8	29.82
303.2 K	1109.2	23.64
308.2 K	1105.7	19.02
313.2 K	1102.1	15.6
318.2 K	1098.5	12.69
323.2 K	1094.8	10.62
328.2 K	1091.2	8.853
333.2 K	1087.5	7.362
338.2 K	1083.8	6.208
343.2 K	1080.1	5.324
